Source: US11464777B2, “Pharmaceutical composition for the treatment of pulmonary arterial hypertension” (Actelion Pharmaceuticals Ltd, priority 2018, dated 2022)

Columns and labels:
[1] = Drug-drug interaction observations
CYP3A4 = CYP3A4 induction in human hepatocytes; type: in vitro ADME
human PXR = target: T1, human PXR (Homo sapiens, UniProt O75469); assay: Activation of human PXR; type: cell-based
T1 sequence (O75469 1-434): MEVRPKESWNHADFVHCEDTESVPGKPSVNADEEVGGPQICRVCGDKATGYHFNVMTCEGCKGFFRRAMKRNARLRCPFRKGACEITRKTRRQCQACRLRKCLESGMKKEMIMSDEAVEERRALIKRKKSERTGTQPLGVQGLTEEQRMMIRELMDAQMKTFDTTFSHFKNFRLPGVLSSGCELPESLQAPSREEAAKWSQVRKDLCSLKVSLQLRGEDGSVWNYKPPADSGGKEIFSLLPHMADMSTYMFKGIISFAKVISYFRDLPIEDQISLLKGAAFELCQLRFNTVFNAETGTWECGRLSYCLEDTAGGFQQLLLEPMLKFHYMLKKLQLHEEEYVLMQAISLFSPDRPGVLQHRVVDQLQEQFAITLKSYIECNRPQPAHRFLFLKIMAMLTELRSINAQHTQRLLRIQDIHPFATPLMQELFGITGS

[2] = tested on: ET receptors (ETA and ETB); conditions: cited from earlier work
[3] = cited from earlier work
rats = conditions: cited from earlier work
plasma ET-1 = conditions: healthy human subjects, 1, 3, 10 and 30 mg; cited from earlier work
BCRP transporters = target: T2, BCRP transporters (Homo sapiens, UniProt Q9UNQ0); assay: Effect on pharmacokinetics of rosuvastatin (BCRP transporters); type: in vivo; conditions: macitentan 10 mg per day o.d.
T2 construct: BCRP is an efflux pump located in the gut, liver canalicular membrane, and kidney; from tissue; host or cells: gut, liver, kidney of dosed subjects (in vivo)
T2 sequence (Q9UNQ0 1-655): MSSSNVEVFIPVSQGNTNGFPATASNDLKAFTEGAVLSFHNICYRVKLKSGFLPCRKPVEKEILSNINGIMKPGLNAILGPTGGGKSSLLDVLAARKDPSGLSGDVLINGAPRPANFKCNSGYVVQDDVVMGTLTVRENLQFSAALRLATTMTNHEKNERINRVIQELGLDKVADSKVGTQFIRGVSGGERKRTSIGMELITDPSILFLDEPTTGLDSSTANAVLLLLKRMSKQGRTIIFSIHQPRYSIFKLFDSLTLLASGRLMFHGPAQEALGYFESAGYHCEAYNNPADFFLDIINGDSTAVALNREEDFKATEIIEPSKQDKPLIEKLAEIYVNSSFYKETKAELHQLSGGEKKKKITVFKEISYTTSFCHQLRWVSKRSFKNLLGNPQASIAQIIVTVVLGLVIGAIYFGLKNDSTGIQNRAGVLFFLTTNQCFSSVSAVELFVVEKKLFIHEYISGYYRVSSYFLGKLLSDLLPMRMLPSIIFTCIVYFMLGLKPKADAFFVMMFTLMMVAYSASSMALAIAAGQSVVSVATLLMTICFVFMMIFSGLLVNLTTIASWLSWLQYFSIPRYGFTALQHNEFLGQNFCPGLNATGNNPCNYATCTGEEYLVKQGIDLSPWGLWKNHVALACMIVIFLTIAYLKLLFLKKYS
Text: BCRP is an efflux pump located in the gut, liver canalicular membrane, and kidney, and is exposed to intracellular drug concentrations in the liver and the kidney.

[4] = Effect of macitentan on decrease in hemoglobin concentration, pooled Phase I studies, Emax model; type: in vivo, human; conditions: healthy volunteers
Text: Hemoglobin measurements were pooled from 3 Phase I clinical studies in healthy volunteers:
Study AC-055-102: Investigation of the PK, PD, safety and tolerability of macitentan in male subjects (the study protocol is described in the following publication: Sidharta et al., Safety, tolerability, pharmacokinetics, and pharmacodynamics of macitentan, an endothelin receptor antagonist, in an ascending multiple-dose study in healthy subjects. J. Clin. Pharmacol. (2013), 53(11),1131-1138)
Study AC-055-116: Investigation of the PK, PD, safety and tolerability of macitentan in male Japanese subjects (the study protocol is described in the following publication: Yokoyama et al., Tolerability, Safety, Pharmacokinetics, and Pharmacodynamics of Macitentan, a New Endothelin Receptor Antagonist, in Healthy Japanese Male Subjects. Rinsho yakuri/Japanese Journal of Clinical Pharmacology and Therapeutics (2016), 47, 143-150) […]
Hemoglobin concentrations measured in the morning of Day 11 of macitentan treatment and at baseline on Day −1 were used in the analysis. […]

CYP3A4 mRNA and enzyme activity (CYP3A4) | EC50 (human PXR) [µM] | effect on the pharmacokinetics of 1 mg rosuvastatin (BCRP transporters) | dose at which effect on hemoglobin decrease plateaus ([4]; Day 11 vs baseline Day -1) [mg] | maximum effect on hemoglobin decrease (Emax) ([4]; Day 11 vs baseline Day -1, nonlinear regression) | SMILES | Drug-Drug Interaction [1] | affinity for the ET receptors relative to parent compound [2] | time to peak plasma concentration ([3]; after the first dose of macitentan) | half-life in humans ([3]; humans) | plasma concentrations relative to macitentan ([3]; humans) | dose of maximal or near-maximal effect in rats (rats; EMA Assessment Report) [mg/kg] | maximal effective dose in rats (rats; Iglarz 2014, Kunita-Takanezawa 2014) [mg/kg] | plasma ET-1 concentrations at steady-state (plasma ET-1) | time to steady state ([3]; humans, repeated administration) | absorption into the plasma ([3]; humans)
concentration-dependent increases | 7.2 to 8.7 | – | – | – | NS(=O)(=O)Nc1ncnc(OCCOc2ncc(Br)cn2)c1-c1ccc(Br)cc1 [ACT-132577] | No Drug-Drug Interaction has been observed | lower affinity | about 30 hours | approximately 48 hours | higher plasma concentrations than macitentan | – | – | – | – | –
concentration-dependent increases | 1.1 to 1.2 | has not shown any effect | 10 | around 1.23 g/dL | CCCNS(=O)(=O)Nc1ncnc(OCCOc2ncc(Br)cn2)c1-c1ccc(Br)cc1 [macitentan, propylsulfamic acid [5-(4-bromo-phenyl)-6-[2-(5-bromo-pyrimidin-2-yloxy)-ethoxy]-pyrimidin-4-yl]-amide] | No Drug-Drug Interaction has been observed | – | – | about 16 hours | – | 10 | 30 | dose-dependent increase, with no further increase beyond the 10 mg oral dose | steady state is reached by the third day of administration | absorbed slowly
